Source: US6271342A, “Sugar-modified cytostatics” (Bayer Aktiengesellschaft, priority 1995, dated 2001)
Counter-ions that a name gives are not always drawn.

Columns and labels:
Experiment in all cases: Growth inhibition test (MTT) for cytotoxic properties
Conditions in all cases: Table 1b
SW 480 = format: cell-based, human
Outline: (§1)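 SW 480 and HT 29 cells in RPMI 1640 with 10% FCS were seeded at 50,000 cells/ml, grown 1 day at 37 °C, then exposed to compound added in DMSO. MTT (5 mg/ml stock) was applied after day 3 and day 6 for 5 h, and formazan absorbance was read at 540 nm. IC50 values reported.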

HT 29 = format: cell-based, human
Outline: as §1

B 16 F 10 = format: cell-based, mouse
Protocol: Growth Inhibition Test for Determination of the Cytotoxic Properties of Glycoconjugates of Batracyline and of Quinolone-a
The human colon cell lines SW 480 and HT 29 (ATCC no. CCL 228 and HBT-38) and the mouse melanoma cell line B 16 F 10 were cultured in Roux dishes in RPMI 1640 medium with addition of 10% FCS. The cultures were then trypsinized and taken up in RPMI plus 10% FCS to a cell count of 50,000 cells/ml. 100 μl of cell suspension/well were introduced into a 96 microwell plate and incubated for 1 day at 37° C. in a CO2 incubating cabinet. A further 100 μl of RPMI medium and 1 μl of dimethyl sulphoxide with the test substances were then added. The growth was checked after day 3 and day 6. 40 μl of MTT solution (3-(4,5-dimethylthiazol-2-yl)-2,5-diphenyltetrazoline bromide) with an initial concentration of 5 mg/ml of H2 O were added to each microwave. The plate was incubated for 5 hours in a CO2 incubating cabinet at 37° C. The medium was then sucked off and 100 μl of i-propanol/well were added. After shaking for 30 minutes with 100 μl of H2 O, the extinction was measured at 540 nm with a Titertek Multiskan MCC/340 (Flow).

SMILES	IC50 (SW 480)	IC50 (HT 29)	IC50 (B 16 F 10)
CC(NC(=O)C(CCCCN)NC(=S)Nc1ccc(OC2OC(C)C(O)C(OCC(=O)O)C2O)cc1)C(=O)NC1C=CCC2CN(c3c(F)cc4c(=O)c(C(=O)O)cn(C5CC5)c4c3Cl)CC21 [Example 12.7, N-{N^α -[O-(3-O-Carboxymethyl-β-L-fucosyl)-4-hydroxy-phenylamino-thiocarbonyl]-lysyl-D-alanyl}-quinolone-a]	60 µM	> 250 µM	20 µM
CO[C@H]1[C@@H](O)[C@@H](CO)O[C@@H](Oc2ccc(NC(=S)NCCCC[C@@H](NC(=S)Nc3ccc(O[C@@H]4O[C@H](CO)[C@H](O)[C@H](OC)[C@H]4O)cc3)C(=O)NC3C=CCC4CN(c5c(F)cc6c(=O)c(C(=O)O)cn(C7CC7)c6c5Cl)CC43)cc2)[C@@H]1O (stereo partly drawn) [Example 11.16, N-{N^α,N^ε -Bis-[O-(3-O-methyl-β-D-galactopyranosyl)-4-hydroxy-phenylamino-thiocarbonyl]-D-lysyl}-quinolone, sodium salt]	10 µM	10 µM	1.5 µM
CCC1(OC(=O)C(NC(=O)C(CCCCNC(=S)Nc2ccc(OC3OC(C)C(O)C(OC)C3O)cc2)NC(=S)Nc2ccc(OC3OC(C)C(O)C(OC)C3O)cc2)C(C)C)C(=O)OCc2c1cc1n(c2=O)Cc2cc3ccccc3nc2-1 [Example 18.5, 20-O-{N^α,N^ε -Bis-[O-(3-O-methyl-β-L-fucopyranosyl)-4-hydroxy-phenylamino-thiocarbonyl]-lysyl-valinyl}-camptothecin]	0.2 µM	0.2 µM	1 µM
CC[C@@]1(OC(=O)[C@H](C)NC(=O)[C@H](CCCCN)NC(=S)Nc2ccc(O[C@H]3O[C@@H](C)[C@@H](O)[C@@H](OC)[C@@H]3O)cc2)C(=O)OCc2c1cc1n(c2=O)Cc2cc3ccccc3nc2-1 [Example 18.14, 20-O-{N^α -[O-(3-O-Methyl-β-L-fucopyranosyl)-4-hydroxy-phenylamino-thiocarbonyl]-lysyl-alanyl}-camptothecin, hydrochloride]	0.015 µM	0.01 µM	0.08 µM
COC1C(O)C(C)OC(Oc2ccc(NC(=S)NC(CN)C(=O)NC3C=CCC4CN(c5c(F)cc6c(=O)c(C(=O)O)cn(C7CC7)c6c5Cl)CC43)cc2)C1O [Example 12.15, N-{N^α -[O-(3-O-Methyl-β-L-fucosyl)-4-hydroxy-phenylamino-thiocarbonyl]-diamino-propionoyl)-quinolone-a, hydrochloride]	0.3 µM	1 µM	0.1 µM
C[C@@H]1O[C@H](Oc2ccc(NC(=S)NCCCC[C@H](NC(=S)Nc3ccc(O[C@H]4O[C@@H](C)[C@@H](O)[C@@H](OCC(=O)O)[C@@H]4O)cc3)C(=O)NC3C=CCC4CN(c5c(F)cc6c(=O)c(C(=O)O)cn(C7CC7)c6c5Cl)CC43)cc2)[C@@H](O)[C@H](OCC(=O)O)[C@@H]1O (stereo partly drawn) [Example 11.8, N-{N^α,N^ε -Bis-[O-(3-O-carboxymethyl-β-L-fucosyl)-4-hydroxy-phenylamino-thiocarbonyl]-lysyl}-quinolone-a, di-sodium salt]	12 µM	16 µM	15 µM
COC1C(O)C(CO)OC(OC2C(CO)OC(Oc3ccc(NC(=S)NC(CCCCN)C(=O)NC4C=CCC5CN(c6c(F)cc7c(=O)c(C(=O)O)cn(C8CC8)c7c6Cl)CC54)cc3)C(O)C2O)C1O [Example 12.11, N-{N^α -[O-(4-O-(3'-O-Methyl-β-D-galactopyranosyl)-β-D-glucopyranosyl)-4-hydroxy-phenylamino-thiocarbonyl]-lysyl}-quinolone-a hydrochloride]	2 µM	2 µM	0.5 µM
C[C@@H]1O[C@H](Oc2ccc(NC(=S)NCCCC[C@@H](NC(=S)Nc3ccc(O[C@H]4O[C@@H](C)[C@@H](O)[C@@H](OCC(=O)O)[C@@H]4O)cc3)C(=O)NC3C=CCC4CN(c5c(F)cc6c(=O)c(C(=O)O)cn(C7CC7)c6c5Cl)CC43)cc2)[C@@H](O)[C@H](OCC(=O)O)[C@@H]1O (stereo partly drawn) [Example 11.9, N-{N^α,N^ε -Bis-[O-(3-O-carboxymethyl-β-L-fucosyl)-4-hydroxy-phenylamino-thiocarbonyl]-D-lysyl}-quinolone-a, di-sodium salt]	12 µM	12 µM	9 µM
COC1C(O)C(C)OC(Oc2ccc(NC(=S)NC(C)C(=O)NC(Cc3ccc(N(CCCl)CCCl)cc3)C(=O)O)cc2)C1O (stereo not drawn) [Example 16.1]	50 µM	100 µM	200 µM
CO[C@@H]1[C@H](O)[C@@H](Oc2ccc(NC(=S)NCCCC[C@@H](NC(=S)Nc3ccc(O[C@H]4O[C@H](CO)[C@@H](O)[C@H](OC)[C@@H]4O)cc3)C(=O)NC3C=CCC4CN(c5c(F)cc6c(=O)c(C(=O)O)cn(C7CC7)c6c5Cl)CC43)cc2)O[C@H](CO)[C@H]1O (stereo partly drawn) [Example 11.17, N-{N^α,N^ε -Bis-[O-(3-O-methyl-α-D-mannopyranosyl)-4-hydroxy-phenylamino-thiocarbonyl]-D-lysyl}-quinolone-a, sodium salt]	75 µM	75 µM	8 µM
CO[C@@H]1[C@H](O)[C@@H](Oc2ccc(NC(=S)N[C@@H](CCCCN)C(=O)NC3C=CCC4CN(c5c(F)cc6c(=O)c(C(=O)O)cn(C7CC7)c6c5Cl)CC43)cc2)O[C@H](CO)[C@H]1O (stereo partly drawn) [Example 12.10, N-{N^α -[O-(3-O-Methyl-α-D-mannopyranosyl)-4-hydroxy-phenylamino-thio-carbonyl]-lysyl}-quinolone-a, hydrochloride]	15 µM	15 µM	4 µM
CO[C@H]1[C@H](O)[C@H](Oc2ccc(NC(=S)NCCCC[C@@H](NC(=S)Nc3ccc(O[C@@H]4O[C@@H](C)[C@@H](O)[C@@H](OC)[C@@H]4O)cc3)C(=O)NC3C=CCC4CN(c5c(F)cc6c(=O)c(C(=O)O)cn(C7CC7)c6c5Cl)CC43)cc2)O[C@@H](C)[C@H]1O (stereo partly drawn) [Example 11.10, N-{N^α,N^ε -Bis-[O-(3-O-methyl-α-L-fucosyl)-4hydroxy-phenylamino-thiocarbonyl]-D-lysyl}-quinolone-a]	8 µM	20 µM	2 µM
CO[C@H]1[C@@H](O)[C@@H](CO)O[C@@H](O[C@H]2[C@H](O)[C@@H](O)[C@H](Oc3ccc(NC(=S)NCCCC[C@@H](NC(=S)Nc4ccc(O[C@@H]5O[C@H](CO)[C@@H](O[C@@H]6O[C@H](CO)[C@H](O)[C@H](OC)[C@H]6O)[C@H](O)[C@H]5O)cc4)C(=O)NC4C=CCC5CN(c6c(F)cc7c(=O)c(C(=O)O)cn(C8CC8)c7c6Cl)CC54)cc3)O[C@@H]2CO)[C@@H]1O (stereo partly drawn) [Example 11.18, N-{N^α,N^ε -Bis-[O-(4-O-(3'-O-methyl-β-D-galactopyranosyl)-β-D-glucopyranosyl)-4-hydroxy-phenylamino-thiocarbonyl]-D-lysyl}-quinolone-a, sodium salt]	4.5 µM	3.5 µM	0.5 µM
CCC1(OC(=O)C(C)NC(=O)C(CCCCNC(=S)Nc2ccc(OC3OC(C)C(O)C(OC)C3O)cc2)NC(=S)Nc2ccc(OC3OC(C)C(O)C(OC)C3O)cc2)C(=O)OCc2c1cc1n(c2=O)Cc2cc3ccccc3nc2-1 [Example 18.4, 20-O-{N^α,N^ε -Bis-[O-(3-O-methyl-β-L-fucopyranosyl)-4-hydroxy-phenylamino-thiocarbonyl]-lysyl-D-alanyl}-camptothecin]	0.02 µM	0.02 µM	0.3 µM
C[C@@H]1O[C@H](Oc2ccc(NC(=S)NCCCC[C@H](N)C(=O)N[C@H](C)C(=O)NC3C=CCC4CN(c5c(F)cc6c(=O)c(C(=O)O)cn(C7CC7)c6c5Cl)CC43)cc2)[C@@H](O)[C@H](OCC(=O)O)[C@@H]1O (stereo partly drawn) [Example 10.1, N-{N^ε -[O(3-O-Carboxymethyl-β-L-fucosyl)-4-hydroxy-phenylamino-thiocarbonyl]-lysyl-D-alanyl}-quinolone-a]	50 µM	> 250 µM	15 µM
CO[C@H]1[C@H](O)[C@@H](Oc2ccc(NC(=S)NCCCC[C@H](N)C(=O)NC3C=CCC4CN(c5c(F)cc6c(=O)c(C(=O)O)cn(C7CC7)c6c5Cl)CC43)cc2)O[C@@H](C)[C@H]1O (stereo partly drawn) [Example 10.3, N-{N^ε -[O-(3-O-Methyl-β-L-fucosyl)-4-hydroxy-phenylamino-thiocarbonyl]-lysyl}-quinolone-a]	5 µM	4 µM	0.7 µM
CO[C@H]1[C@H](O)[C@@H](Oc2ccc(NC(=S)NCCCC[C@H](N)C(=O)N[C@@H](C)C(=O)NC3C=CCC4CN(c5c(F)cc6c(=O)c(C(=O)O)cn(C7CC7)c6c5Cl)CC43)cc2)O[C@@H](C)[C@H]1O (stereo partly drawn) [Example 10.2, N-{N^ε -[O-(3-O-Methyl-β-L-fucosyl)-4-hydroxy-phenylamino-thiocarbonyl]-lysyl-alanyl}-quinolone-a]	4 µM	3 µM	5 µM
COc1cccc2c1C(=O)c1c(O)c3c(c(O)c1C2=O)CC(O)(C(=O)CO)CC3OC1CC(NC(=O)C(C)NC(=O)C(C)NC(=S)Nc2ccc(OC3OC(C)C(O)C(OC)C3O)cc2)C(O)C(C)O1 [Example 17.1, N-{N'-[O-(3--Methyl-β-L-fucopyranosyl)-4-hydroxy-phenylamino-thiocarbonyl]-alanyl-alanyl}-doxorubicin]	10 µM	5 µM	5 µM
